Assay results from patent US5916906A, “Compositions comprising nicotinylalanine and an inhibitor of glycine conjugation or vitamin B6” (priority 1997, dated 1999).
Read-outs that look alike come from different tables or passages of the source.

Experiments:
[1] = Plasma pharmacokinetics of nicotinylalanine after i.v., i.p. and oral administration; format: in vivo, C57BL/6 mice; conditions: for bioavailability / half-life / Tmax: 400 mg/kg; for Tmax: read-out: Time of peak plasma level of NAL (converted); for k el: read-out: Ke (converted)
Procedure: The purpose of this study was to determine the plasma pharmacokinetics of nicotinylalanine in fasted, female C57BL/6 mice after intravenous (i.v.), intraperitoneal (i.p.), and oral (p.o.) administration of equivalent doses of nicotinylalanine at 400 mg/kg body weight. The analytic methods used in these studies were the same as described in Example 1 and Table 1 for Metabolic Studies.
Bioavailability of nicotinylalanine after p.o. and i.p. administration was determined by comparison of the areas under the plasma time curves with the area under the plasma time curve for the i.v. administration of an equivalent dose at 400 mg/kg into the tail vein. Time points were evaluated from five minutes to 1,440 minutes (24 hours) after dosing, although the rapid pharmacokinetics under each dosing regimen focused the time parameters to less than six hours.
Although there are several compartmental analyses which could be used to model the pharmacokinetic data, for derivation of pharmacokinetic parameters a simple non-compartmental analysis was selected. The computer program used to generate the parameters (Table 5) and for fitting the curves (FIGS. 7, 8) was the Lagran Program using the Lagrange Function. See, Rocci M. L. and Jusko W. J. 1983, "Lagran Program for Area and Moments in Pharmacokinetic Analysis", Comp. Prog. Biomed. 16, 203-212; and Yeh K. C. and Quan K. C. 1978, "A Comparison of Numerical Integrating Algorithms by Trapezoidal Lagrange and Spline Approximations", J. Pharmacokinet. Biopharmacol. 6, 79-93.

[2] = Urinary N-methylnicotinamide in rats treated with nicotinylalanine (literature); format: in vivo; conditions: following nicotinylalanine injection, inferred from urinary N-methylnicotinamide
Source text: As discussed above, these benefits of nicotinylalanine treatment are applicable to other diseases besides neurodegeneration. R. H. Decker, et al. (ibid) reported a 4-5 fold increase in N-methylnicotinamide levels in the urine of rats treated with nicotinylalanine. Since N-methylnicotinamide is a major urinary excretion product of nicotinamide in the rat, increases in the endogenous levels of nicotinamide following nicotinylalanine injection are at least 5 fold.

[3] = acute 500 mg/kg racemic NAL (Connick 1992); cited from earlier work
LP-BM5 MuLV Retrovirus = conditions: cited from earlier work
[4] = Toxicity observations and necropsy in LP-BM5 infected mice; format: in vivo, C57BL/6 mice
Procedure: Disease progression was monitored by measuring serum IgM levels by ELISA on all animals at monthly intervals during the course of disease. Three mice per group were randomly selected and sacrificed at monthly intervals (end of month one through four) of the study. Disease scores for each animal were recorded weekly based upon palpation of lymph nodes and spleen. Complete gross necropsies were performed on these euthanized animals and the ratio of recorded spleen to body weights was an additional indicator of diseases progression. […] Infection was quantified by ecotropic virus XC plaque assays of spleens removed from the interim sacrificed animals. The study was to be terminated when mice were either dead or disease scores were +4 in more than 50% of the vehicle-treated MAIDS controls (Group 1), which occurred at 19 weeks post-inoculation of the virus pool. However, as the remaining mice in Group 1 were slow to progress towards more severe disease (FIG. 5) or death (FIG. 6), the study was extended until a termination date of 28 weeks post-inoculation.

[5] = within the first month of dosing

Structure (SMILES): NC(CC(=O)c1cccnc1)C(=O)O (racemic) [NAL, γ-(3-pyridyl)-γ-oxo-α-aminobutyrate]
- CL ([1]; NAL 400 mg/kg, i.p., fasted female mice): 31.6
- CL ([1]; NAL 400 mg/kg, p.o., fasted female mice): 50.2
- Volume of distribution (Vdss), in words ([1]; especially in the oral dosage form): consistent with a compound well-distributed in aqueous compartments
- Bioavailability i.p. versus i.v. or oral, in words ([1]; i.p. compared to i.v. or oral): apparently greater however when the i.p. route is used
- bioavailability ([1]; mouse, plasma, ip, NAL 400 mg/kg, i.p., fasted female mice, read-out: F (fraction bioavailable)): 183%
- half-life ([1]; mouse, plasma, ip, NAL 400 mg/kg, i.p., fasted female mice, read-out: t1/2): 24.9 min
- half-life ([1]; mouse, plasma, ip, i.p., read-out: t1/2 (half-life of plasma nicotinylalanine)): ~25 min
- Tmax ([1]; mouse, plasma, ip): ~5 min
- k el ([1]; mouse, plasma, ip, NAL 400 mg/kg, i.p., fasted female mice): 0.000463 s⁻¹
- Vd/F ([1]; mouse, plasma, ip, NAL 400 mg/kg, i.p., fasted female mice, read-out: Vdss): 0.821 L/kg
- half-life ([1]; mouse, plasma, iv, NAL 400 mg/kg, i.v., fasted female mice, read-out: t1/2): 40.2 min
- half-life ([1]; mouse, plasma, iv, i.v., read-out: t1/2 (half-life of plasma nicotinylalanine)): ~40 min
- Tmax ([1]; mouse, plasma, iv): ~5 min
- clearance ([1]; mouse, plasma, iv, NAL 400 mg/kg, fasted female mice): 57.3 mL/min/kg
- k el ([1]; mouse, plasma, iv, NAL 400 mg/kg, i.v., fasted female mice): 0.000287 s⁻¹
- Vd ([1]; mouse, plasma, iv, NAL 400 mg/kg, i.v., fasted female mice, read-out: Vdss): 1.33 L/kg
- bioavailability ([1]; mouse, plasma, po, NAL 400 mg/kg, p.o., fasted female mice, read-out: F (fraction bioavailable)): 105%
- half-life ([1]; mouse, plasma, po, NAL 400 mg/kg, p.o., fasted female mice, read-out: t1/2): 58.7 min
- bioavailability ([1]; mouse, plasma, po, oral dose, read-out: fraction bioavailable (F)): ~100%
- half-life ([1]; mouse, plasma, po, oral, read-out: t1/2 (half-life of plasma nicotinylalanine)): ~60 min
- k el ([1]; mouse, plasma, po, NAL 400 mg/kg, p.o., fasted female mice): 0.000197 s⁻¹
- Vd/F ([1]; mouse, plasma, po, NAL 400 mg/kg, p.o., fasted female mice, read-out: Vdss): 3.35 L/kg
- Tmax ([1]; mouse, plasma, oral gavage): ~10 min
- Nicotinamide plasma level versus control ([1]; oral NAL 400 mg/kg, transient): about twice control
- t1/2 oral versus i.p. ([1]; oral compared with i.p. dose): approximately twice as long
- t1/2 oral versus i.v. ([1]; oral compared with i.v. dose): approximately one and a half (11/2) times as long
- Increase in endogenous nicotinamide levels [2]: at least 5 fold
- Behavioral effects [3]: not to result in any behavioral effects

Structure (SMILES): Cc1cn([C@H]2C[C@H](N=[N+]=[N-])[C@@H](CO)O2)c(=O)[nH]c1=O [AZT, 3'azido-3'deoxythymidine, reference compound]
- Disease progression (in words) (LP-BM5 MuLV Retrovirus; AZT 0.1 mg/kg (Eiseman 1991)): still delayed disease progression
- Control of LP-BM5 disease (in words) (LP-BM5 MuLV Retrovirus; AZT 0.5 mg/kg in drinking water, chronic (Eiseman 1991)): effective in controlling LP-BM5 disease
- Deaths prior to termination of the study ([4]; 28-week study): one mouse
- Necropsy finding in mice that died ([4]; Groups 4 and 7): distended food filled small and large intestines
- Side-effect: melaninization [4, 5]: melaninization of extremities, tail, and ears
- Side-effect: red-blood cell [4, 5]: red-blood cell toxicities
